From patent publication US8247211B2, “Glycopeptide antibiotics” (American Cyanamid Company, priority 2001, dated 2012)
Where “and” joins values, the source holds several entries; their conditions need not be identical. Identical values can stand only once.

Test system: Staphylococcus aureus
Test: Zone of inhibition, assay plate Staphylococcus aureus
Format: cell-based
Conditions: 25 μl of extract per 5 mm well, Nutrient Agar pH 6.8, incubated overnight at 37° C.
Experimental: Inoculate 10 mL of Tryptic Soy Broth with a loopful of slant culture, Staphylococcus aureus, and place in a stationary rack at 37° C. After 16-18 hour incubation, the Optical Density (OD) of the culture is read @ A600 nm, using a 1:10 dilution. OD should be between 0.1-0.3, and if not adjust with Tryptic Soy Broth. A 40 mL sample of Nutrient Agar, pH 6.8 is inoculated with 90 μl of S. aureus culture and poured into a sterile petri dish. When the agar has solidified, wells (5 mm) are plated using an automated welling device. Wells are inoculated with 25 μl of extract and incubated overnight at 37° C. Zones of inhibition are measured and recorded the following morning.

With `CC(C)CCC(=O)OC1C(CO)OC(OC2C(CO)OC(Oc3ccc(CC4NC(=O)C(C(C)c5ccccc5)NC(=O)CNC(=O)C(CO)NC(=O)C(C(O)C5CNC(=N)N5C5OC(CO)C(O)C(O)C5O)NC(=O)C(C(O)C5CNC(=N)N5)NC4=O)cc3)C(O)C2O)C(O)C1O` (stereo not drawn) [Example 270c, Cyclo[glycyl-β-methylphenylalanyl-O-[4-O-[4-O-(4-methylpentanoyl)hexopyranosyl]-hexopyranosyl]tyrosyl-3-(2-iminoimidazolidin-4-yl)seryl-3-(3-hexopyranosyl-2-iminoimidazolidin-4-yl)serylseryl]] as the compound, how does the “Zone of Inhibition vs. S. aureus” value read?
The value was 11 mm.

`CCCC(=O)OC1C(O)C(CO)OC(OC2C(CO)OC(Oc3ccc(CC4NC(=O)C(C(C)c5ccccc5)NC(=O)CNC(=O)C(CO)NC(=O)C(C(O)C5CNC(=N)N5C5OC(CO)C(O)C(O)C5O)NC(=O)C(C(O)C5CNC(=N)N5)NC4=O)cc3)C(O)C2O)C1O` (stereo not drawn) [Example 272b, Cyclo[glycyl-β-methylphenylalanyl-O-[4-O-(3-O-butanoyl-hexopyranosyl)-hexopyranosyl]tyrosyl-3-(2-iminoimidazolidin-4-yl)seryl-3-(3-hexopyranosyl-2-iminoimidazolidin-4-yl)serylseryl]] was tested. Which “Zone of Inhibition vs. S. aureus” value did it give?
The value was 8 mm.

With `CCCCCCC(=O)OC1C(OC2C(CO)OC(Oc3ccc(CC4NC(=O)C(C(C)c5ccccc5)NC(=O)CNC(=O)C(CO)NC(=O)C(C(O)C5CNC(=N)N5C5OC(CO)C(O)C(O)C5O)NC(=O)C(C(O)C5CNC(=N)N5)NC4=O)cc3)C(O)C2O)OC(CO)C(O)C1O` (stereo not drawn) [Example 274a, Cyclo[glycyl-β-methylphenylalanyl-O-[4-O-(2-O-heptanoyl-hexopyranosyl)-hexopyranosyl]tyrosyl-3-(2-iminoimidazolidin-4-yl)seryl-3-(3-hexopyranosyl-2-iminoimidazolidin-4-yl)serylseryl]] as the compound, how does the “Zone of Inhibition vs. S. aureus” value read?
The value was 9 mm.

`CCCCCC(=O)OC1C(O)C(CO)OC(OC2C(CO)OC(Oc3ccc(CC4NC(=O)C(C(C)c5ccccc5)NC(=O)CNC(=O)C(CO)NC(=O)C(C(O)C5CNC(=N)N5C5OC(CO)C(O)C(O)C5O)NC(=O)C(C(O)C5CNC(=N)N5)NC4=O)cc3)C(O)C2O)C1O` (stereo not drawn) [Example 273b] was tested. Which “Zone of Inhibition vs. S. aureus” value did it give?
The value was 9 mm and 8 mm.

With `CCC(C)CC(=O)OC1C(CO)OC(OC2C(CO)OC(Oc3ccc(CC4NC(=O)C(C(C)c5ccccc5)NC(=O)CNC(=O)C(CO)NC(=O)C(C(O)C5CNC(=N)N5C5OC(CO)C(O)C(O)C5O)NC(=O)C(C(O)C5CNC(=N)N5)NC4=O)cc3)C(O)C2O)C(O)C1O` (stereo not drawn) [Example 271c, Cyclo[glycyl-β-methylphenylalanyl-O-[4-O-[4-O-(3-methylpentanoyl)hexopyranosyl]-hexopyranosyl]tyrosyl-3-(2-iminoimidazolidin-4-yl)seryl-3-(3-hexopyranosyl-2-iminoimidazolidin-4-yl)serylseryl]] as the compound, how does the “Zone of Inhibition vs. S. aureus” value read?
The value was 12 mm.

Which “Zone of Inhibition vs. S. aureus” value does the source give for `CCCCCCC(=O)OC1C(O)C(CO)OC(OC2C(CO)OC(Oc3ccc(CC4NC(=O)C(C(C)c5ccccc5)NC(=O)CNC(=O)C(CO)NC(=O)C(C(O)C5CNC(=N)N5C5OC(CO)C(O)C(O)C5O)NC(=O)C(C(O)C5CNC(=N)N5)NC4=O)cc3)C(O)C2O)C1O` (stereo not drawn) [Example 274b, Cyclo[glycyl-β-methylphenylalanyl-O-[4-O-(3-O-heptanoyl-hexopyranosyl)-hexopyranosyl]tyrosyl-3-(2-iminoimidazolidin-4-yl)seryl-3-(3-hexopyranosyl-2-iminoimidazolidin-4-yl)serylseryl]] here?
The value was 10 mm.
